{
  "source": "the supplement of paper PMC10307832",
  "data": [
    {"compound": "COc1cc(Nc2ncc(F)c(Nc3ccc4c(n3)NC(=O)C(C)(C)O4)n2)cc(OC)c1OC [R406] + Nc1ncn([C@H]2C[C@H](O)[C@@H](CO)O2)c(=O)n1 [Decitabine] (partner 2 µM)", "assay": "relative viability (nuclei count vs DMSO), 5 days (fraction); higher = more cells survive", "details": "first compound 8 µM", "procedure,_shortened": "(§1)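 Dosing by pin tool came one day after lung cancer cell lines were seeded in 1536-well plates, using either one drug or a fixed anchor-drug dose plus five library-drug doses (not always all listed) in √10 steps. After 5 days, nuclei were counted on 4× images. Relative viability is treated-well nuclei count divided by vehicle-well nuclei count, and values are medians of duplicate plates.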", "values": [
      {"cell line": "NCI-H2087", "relative viability": 0.152},
      {"cell line": "H3255", "relative viability": 0.458},
      {"cell line": "COR-L23", "relative viability": 0.326},
      {"cell line": "COR-L 105", "relative viability": 0.475},
      {"cell line": "LOU-NH91", "relative viability": 0.558},
      {"cell line": "ChaGo-K-1", "relative viability": 0.506},
      {"cell line": "NCI-H2405", "relative viability": 0.369},
      {"cell line": "HOP-62", "relative viability": 0.438},
      {"cell line": "HCC-44", "relative viability": 1.05},
      {"cell line": "LU99A", "relative viability": 0.591},
      {"cell line": "BEN", "relative viability": 0.441},
      {"cell line": "HARA", "relative viability": 0.178},
      {"cell line": "HCC-78", "relative viability": 0.61},
      {"cell line": "NCI-H322M", "relative viability": 0.557},
      {"cell line": "LCLC-97TM1", "relative viability": 0.274},
      {"cell line": "NCI-H2009", "relative viability": 0.294},
      {"cell line": "A-427", "relative viability": 0.571}
    ]},
    {"compound": "O=C(/C=C/c1cccnc1)NCCCCC1CCN(C(=O)c2ccccc2)CC1 [Daporinad] + C[C@@H](Oc1cc(-c2cnn(C3CCNCC3)c2)cnc1N)c1c(Cl)ccc(F)c1Cl [Crizotinib] (partner 1 µM)", "assay": "relative viability (nuclei count vs DMSO), 5 days (fraction); higher = more cells survive", "details": "first compound 0.0005 µM", "procedure,_shortened": "as §1", "values": [
      {"cell line": "NCI-H1993", "relative viability": 0.954},
      {"cell line": "NCI-H441", "relative viability": 0.79},
      {"cell line": "PC-14", "relative viability": 0.911},
      {"cell line": "LCLC-103H", "relative viability": 1.08},
      {"cell line": "NCI-H596", "relative viability": 1.05},
      {"cell line": "NCI-H2126", "relative viability": 1.06},
      {"cell line": "EMC-BAC-2", "relative viability": 0.743},
      {"cell line": "NCI-H2085", "relative viability": 0.874},
      {"cell line": "HCC-366", "relative viability": 0.696},
      {"cell line": "NCI-H1666", "relative viability": 1.25},
      {"cell line": "NCI-H647", "relative viability": 1.27},
      {"cell line": "NCI-H2087", "relative viability": 0.75},
      {"cell line": "H3255", "relative viability": 0.782},
      {"cell line": "COR-L23", "relative viability": 0.819},
      {"cell line": "COR-L 105", "relative viability": 0.763},
      {"cell line": "LOU-NH91", "relative viability": 0.782},
      {"cell line": "ChaGo-K-1", "relative viability": 1.15},
      {"cell line": "NCI-H2405", "relative viability": 0.731},
      {"cell line": "HCC-44", "relative viability": 0.768},
      {"cell line": "LU99A", "relative viability": 0.527},
      {"cell line": "BEN", "relative viability": 0.849},
      {"cell line": "HARA", "relative viability": 1.05},
      {"cell line": "HCC-78", "relative viability": 0.333},
      {"cell line": "NCI-H322M", "relative viability": 0.847},
      {"cell line": "LCLC-97TM1", "relative viability": 0.443},
      {"cell line": "NCI-H2009", "relative viability": 1.02},
      {"cell line": "A-427", "relative viability": 0.857}
    ]},
    {"compound": "O=C(/C=C/c1cccnc1)NCCCCC1CCN(C(=O)c2ccccc2)CC1 [Daporinad] + C[C@@H](Oc1cc(-c2cnn(C3CCNCC3)c2)cnc1N)c1c(Cl)ccc(F)c1Cl [Crizotinib] (partner 1 µM)", "assay": "relative viability (nuclei count vs DMSO), 5 days (fraction); higher = more cells survive", "details": "first compound 0.001581 µM", "procedure,_shortened": "as §1", "values": [
      {"cell line": "NCI-H1993", "relative viability": 0.941},
      {"cell line": "NCI-H441", "relative viability": 0.916},
      {"cell line": "PC-14", "relative viability": 0.876},
      {"cell line": "LCLC-103H", "relative viability": 1.03},
      {"cell line": "NCI-H596", "relative viability": 1.02},
      {"cell line": "NCI-H2126", "relative viability": 1.03},
      {"cell line": "EMC-BAC-2", "relative viability": 0.763},
      {"cell line": "NCI-H2085", "relative viability": 0.825},
      {"cell line": "HCC-366", "relative viability": 0.628},
      {"cell line": "NCI-H1666", "relative viability": 1.06},
      {"cell line": "NCI-H647", "relative viability": 0.974},
      {"cell line": "NCI-H2087", "relative viability": 0.708},
      {"cell line": "H3255", "relative viability": 0.937},
      {"cell line": "COR-L23", "relative viability": 0.651},
      {"cell line": "COR-L 105", "relative viability": 0.722},
      {"cell line": "LOU-NH91", "relative viability": 0.801},
      {"cell line": "ChaGo-K-1", "relative viability": 1.18},
      {"cell line": "NCI-H2405", "relative viability": 0.92},
      {"cell line": "HOP-62", "relative viability": 1.05},
      {"cell line": "HCC-44", "relative viability": 0.787},
      {"cell line": "LU99A", "relative viability": 0.596},
      {"cell line": "BEN", "relative viability": 0.879},
      {"cell line": "HARA", "relative viability": 1.07},
      {"cell line": "HCC-78", "relative viability": 0.362},
      {"cell line": "NCI-H322M", "relative viability": 1.03},
      {"cell line": "LCLC-97TM1", "relative viability": 0.402},
      {"cell line": "NCI-H2009", "relative viability": 1.04},
      {"cell line": "A-427", "relative viability": 0.917}
    ]},
    {"compound": "O=C(/C=C/c1cccnc1)NCCCCC1CCN(C(=O)c2ccccc2)CC1 [Daporinad] + C[C@@H](Oc1cc(-c2cnn(C3CCNCC3)c2)cnc1N)c1c(Cl)ccc(F)c1Cl [Crizotinib] (partner 1 µM)", "assay": "relative viability (nuclei count vs DMSO), 5 days (fraction); higher = more cells survive", "details": "first compound 0.005 µM", "procedure,_shortened": "as §1", "values": [
      {"cell line": "NCI-H1993", "relative viability": 1.01},
      {"cell line": "NCI-H441", "relative viability": 1.1},
      {"cell line": "PC-14", "relative viability": 0.913},
      {"cell line": "LCLC-103H", "relative viability": 1.14},
      {"cell line": "NCI-H596", "relative viability": 1.12},
      {"cell line": "NCI-H2126", "relative viability": 1.09},
      {"cell line": "EMC-BAC-2", "relative viability": 0.527},
      {"cell line": "NCI-H2085", "relative viability": 0.868},
      {"cell line": "HCC-366", "relative viability": 0.864},
      {"cell line": "NCI-H1666", "relative viability": 1.03},
      {"cell line": "NCI-H647", "relative viability": 1.43},
      {"cell line": "NCI-H2087", "relative viability": 0.945},
      {"cell line": "H3255", "relative viability": 0.853},
      {"cell line": "COR-L23", "relative viability": 0.568},
      {"cell line": "COR-L 105", "relative viability": 0.723},
      {"cell line": "LOU-NH91", "relative viability": 0.862},
      {"cell line": "ChaGo-K-1", "relative viability": 0.896},
      {"cell line": "NCI-H2405", "relative viability": 0.918},
      {"cell line": "HOP-62", "relative viability": 0.994},
      {"cell line": "HCC-44", "relative viability": 0.899},
      {"cell line": "LU99A", "relative viability": 0.685},
      {"cell line": "BEN", "relative viability": 0.91},
      {"cell line": "HARA", "relative viability": 1.07},
      {"cell line": "HCC-78", "relative viability": 0.331},
      {"cell line": "NCI-H322M", "relative viability": 0.985},
      {"cell line": "LCLC-97TM1", "relative viability": 0.605},
      {"cell line": "NCI-H2009", "relative viability": 1.06},
      {"cell line": "A-427", "relative viability": 0.994}
    ]},
    {"compound": "O=C(/C=C/c1cccnc1)NCCCCC1CCN(C(=O)c2ccccc2)CC1 [Daporinad] + C[C@@H](Oc1cc(-c2cnn(C3CCNCC3)c2)cnc1N)c1c(Cl)ccc(F)c1Cl [Crizotinib] (partner 1 µM)", "assay": "relative viability (nuclei count vs DMSO), 5 days (fraction); higher = more cells survive", "details": "first compound 0.01581 µM", "procedure,_shortened": "as §1", "values": [
      {"cell line": "NCI-H1993", "relative viability": 1.08},
      {"cell line": "NCI-H441", "relative viability": 1.15},
      {"cell line": "PC-14", "relative viability": 0.651},
      {"cell line": "LCLC-103H", "relative viability": 1.09},
      {"cell line": "NCI-H596", "relative viability": 0.677},
      {"cell line": "NCI-H2126", "relative viability": 1.01},
      {"cell line": "EMC-BAC-2", "relative viability": 0.247},
      {"cell line": "NCI-H2085", "relative viability": 0.841},
      {"cell line": "HCC-366", "relative viability": 0.634},
      {"cell line": "NCI-H1666", "relative viability": 0.97},
      {"cell line": "NCI-H647", "relative viability": 1.11},
      {"cell line": "NCI-H2087", "relative viability": 0.674},
      {"cell line": "H3255", "relative viability": 0.864},
      {"cell line": "COR-L23", "relative viability": 0.153},
      {"cell line": "COR-L 105", "relative viability": 0.798},
      {"cell line": "LOU-NH91", "relative viability": 0.913},
      {"cell line": "ChaGo-K-1", "relative viability": 0.379},
      {"cell line": "NCI-H2405", "relative viability": 0.511},
      {"cell line": "HOP-62", "relative viability": 0.789},
      {"cell line": "HCC-44", "relative viability": 0.747},
      {"cell line": "LU99A", "relative viability": 0.549},
      {"cell line": "BEN", "relative viability": 1.1},
      {"cell line": "HARA", "relative viability": 0.291},
      {"cell line": "HCC-78", "relative viability": 0.428},
      {"cell line": "NCI-H322M", "relative viability": 0.592},
      {"cell line": "LCLC-97TM1", "relative viability": 0.323},
      {"cell line": "NCI-H2009", "relative viability": 0.827},
      {"cell line": "A-427", "relative viability": 0.749}
    ]},
    {"compound": "COc1cc(Nc2ncc(F)c(Nc3ccc4c(n3)NC(=O)C(C)(C)O4)n2)cc(OC)c1OC [R406] + CC(C)C[C@H](NC(=O)[C@H](Cc1ccccc1)NC(=O)c1cnccn1)B(O)O [Bortezomib] (partner 0.002 µM)", "assay": "relative viability (nuclei count vs DMSO), 5 days (fraction); higher = more cells survive", "details": "first compound 0.08 µM", "procedure,_shortened": "as §1", "values": [
      {"cell line": "NCI-H1993", "relative viability": 1.04},
      {"cell line": "PC-14", "relative viability": 0.874},
      {"cell line": "LCLC-103H", "relative viability": 0.972},
      {"cell line": "NCI-H596", "relative viability": 1.1}
    ]}
  ]
}
